Tests used:
MCF7 = assay: Growth inhibition of human MCF7 cells assessed as cell growth at 10 uM after 48 hrs by sulforhodamine B assay; type: functional; details: MCF7, 48 h, read-out: Activity
KM12 = assay: Growth inhibition of human KM12 cells after 48 hrs by sulforhodamine B assay; type: functional, cell-based; details: KM12, 48 h
NCI-H322M [1] = assay: Growth inhibition of human NCI-H322M cells assessed as cell growth at 10 uM after 48 hrs by sulforhodamine B assay; type: functional; details: read-out: Activity
OVCAR-3 = assay: Growth inhibition of human OVCAR3 cells assessed as cell growth at 10 uM after 48 hrs by sulforhodamine B assay; type: functional; details: OVCAR-3, 48 h, read-out: Activity
ACHN = assay: Growth inhibition of human ACHN cells after 48 hrs by sulforhodamine B assay; type: functional
MDA-MB-468 = assay: Growth inhibition of human MDA-MB-468 cells after 48 hrs by sulforhodamine B assay; type: functional, cell-based; details: MDA-MB-468, 48 h
HT-29 = assay: Growth inhibition of human HT-29 cells assessed as cell growth at 10 uM after 48 hrs by sulforhodamine B assay; type: functional; details: HT-29, 48 h, read-out: Activity
UACC-257 = assay: Growth inhibition of human UACC257 cells after 48 hrs by sulforhodamine B assay; type: functional; details: UACC-257, 48 h
HCT-116 = assay: Growth inhibition of human HCT116 cells after 48 hrs by sulforhodamine B assay; type: functional; details: HCT-116, 48 h
MDA-MB-231 = assay: Growth inhibition of human MDA-MB-231 cells assessed as cell growth at 10 uM after 48 hrs by sulforhodamine B assay; type: functional; details: MDA-MB-231, 48 h, read-out: Activity
OVCAR-8 [2] = assay: Growth inhibition of human OVCAR8 cells after 48 hrs by sulforhodamine B assay; type: functional; details: OVCAR-8, 48 h
[3] = Growth inhibition of human NCI-ADR-RES cells assessed as cell growth at 10 uM after 48 hrs by sulforhodamine B assay; type: functional; details: read-out: Activity
DU-145 [4] = assay: Growth inhibition of human DU145 cells assessed as cell growth at 10 uM after 48 hrs by sulforhodamine B assay; type: functional; details: DU-145, 48 h, read-out: Activity
786-0 = assay: Growth inhibition of human 786-0 cells after 48 hrs by sulforhodamine B assay; type: functional; details: 786-0, 48 h
SF-539 [5] = assay: Growth inhibition of human SF539 cells assessed as cell growth at 10 uM after 48 hrs by sulforhodamine B assay; type: functional; details: SF-539, 48 h, read-out: Activity
SK-MEL-28 = assay: Growth inhibition of human SK-MEL-28 cells assessed as cell growth at 10 uM after 48 hrs by sulforhodamine B assay; type: functional; details: SK-MEL-28, 48 h, read-out: Activity
OVCAR-8 [6] = assay: Growth inhibition of human OVCAR8 cells assessed as cell growth at 10 uM after 48 hrs by sulforhodamine B assay; type: functional; details: OVCAR-8, 48 h, read-out: Activity
UACC-62 = assay: Growth inhibition of human UACC62 cells after 48 hrs by sulforhodamine B assay; type: functional; details: UACC-62, 48 h
SF-539 [7] = assay: Growth inhibition of human SF539 cells after 48 hrs by sulforhodamine B assay; type: functional; details: SF-539, 48 h
A549 = assay: Growth inhibition of human A549/ATCC cells after 48 hrs by sulforhodamine B assay; type: functional; details: A549, 48 h
HOP-92 = assay: Growth inhibition of human HOP92 cells assessed as cell growth at 10 uM after 48 hrs by sulforhodamine B assay; type: functional; details: HOP-92, 48 h, read-out: Activity
SR = assay: Growth inhibition of human SR cells after 48 hrs by sulforhodamine B assay; type: functional
UO-31 = assay: Growth inhibition of human UO31 cells after 48 hrs by sulforhodamine B assay; type: functional; details: UO-31, 48 h
OVCAR-5 = assay: Growth inhibition of human OVCAR5 cells assessed as cell growth at 10 uM after 48 hrs by sulforhodamine B assay; type: functional; details: OVCAR-5, 48 h, read-out: Activity
SNB-19 = assay: Growth inhibition of human SNB19 cells assessed as cell growth at 10 uM after 48 hrs by sulforhodamine B assay; type: functional; details: SNB-19, 48 h, read-out: Activity
DU-145 [8] = assay: Growth inhibition of human DU145 cells after 48 hrs by sulforhodamine B assay; type: functional; details: DU-145, 48 h
K562 = assay: Growth inhibition of human K562 cells assessed as cell growth at 10 uM after 48 hrs by sulforhodamine B assay; type: functional; details: K562, 48 h, read-out: Activity
SW-620 = assay: Growth inhibition of human SW620 cells after 48 hrs by sulforhodamine B assay; type: functional; details: SW-620, 48 h
COLO 205 = assay: Growth inhibition of human COLO205 cells assessed as cell growth at 10 uM after 48 hrs by sulforhodamine B assay; type: functional; details: COLO 205, 48 h, read-out: Activity
NCI-H322M [9] = assay: Growth inhibition of human NCI-H322M cells after 48 hrs by sulforhodamine B assay; type: functional
U-251 = assay: Growth inhibition of human U251 cells after 48 hrs by sulforhodamine B assay; type: functional; details: U-251, 48 h
HCT-15 = assay: Growth inhibition of human HCT15 cells after 48 hrs by sulforhodamine B assay; type: functional; details: HCT-15, 48 h
[10] = Growth inhibition of human HCC2998 cells after 48 hrs by sulforhodamine B assay; type: functional; details: HCC 2998, 48 h
M14 = assay: Growth inhibition of human M14 cells assessed as cell growth at 10 uM after 48 hrs by sulforhodamine B assay; type: functional; details: M14, 48 h, read-out: Activity
[11] = read-out: LC50 (the source's name)

COc1cc(-c2nn(-c3cccc(NC(=O)c4ccccc4)c3)cc2-c2ccncc2)ccc1Cl
growth at 10 µM (MCF7): 4.67% | GI50 (KM12): 0.556 µM | IC50 (KM12): 0.56 µM | TGI (KM12): > 100 µM | CC50 (KM12; [11]): > 100 µM | growth at 10 µM (NCI-H322M [1]): 52.3% | growth at 10 µM (OVCAR-3): 0.02% | GI50 (ACHN): 0.754 µM | TGI (ACHN): > 100 µM | CC50 (ACHN; [11]): > 100 µM | GI50 (MDA-MB-468): 0.349 µM | IC50 (MDA-MB-468): 0.35 µM | TGI (MDA-MB-468): 3.42 µM | CC50 (MDA-MB-468; [11]): > 100 µM | growth at 10 µM (HT-29): 2.03% | GI50 (UACC-257): 0.859 µM | TGI (UACC-257): > 100 µM | CC50 (UACC-257; [11]): > 100 µM | GI50 (HCT-116): 0.5 µM | TGI (HCT-116): > 100 µM | CC50 (HCT-116; [11]): > 100 µM | growth at 10 µM (MDA-MB-231): 5.8% | GI50 (OVCAR-8 [2]): 0.995 µM | TGI (OVCAR-8 [2]): > 100 µM | CC50 (OVCAR-8 [2]; [11]): > 100 µM | growth at 10 µM [3]: 0.34% | growth at 10 µM (DU-145 [4]): 11.6% | GI50 (786-0): 1.52 µM | TGI (786-0): > 100 µM | CC50 (786-0; [11]): > 100 µM | growth at 10 µM (SF-539 [5]): -15% | growth at 10 µM (SK-MEL-28): 34.4% | growth at 10 µM (OVCAR-8 [6]): 19.6% | GI50 (UACC-62): 0.692 µM | LC50 (50% lethal concentration) (UACC-62): > 100 µM | TGI (UACC-62): > 100 µM | GI50 (SF-539 [7]): 0.387 µM | LC50 (concentration killing 50% of cells) (SF-539 [7]): > 100 µM | TGI (SF-539 [7]): 2.88 µM | GI50 (A549): 0.585 µM | LC50 (concentration killing 50% of starting cells) (A549): > 100 µM | TGI (A549): > 100 µM | growth at 10 µM (HOP-92): 9.19% | GI50 (SR): 0.25 µM | TGI (SR): > 100 µM | CC50 (SR; [11]): > 100 µM | GI50 (UO-31): 0.638 µM | TGI (UO-31): > 100 µM | CC50 (UO-31; [11]): > 100 µM | growth at 10 µM (OVCAR-5): 66.4% | growth at 10 µM (SNB-19): 50% | GI50 (DU-145 [8]): 0.78 µM | LC50 (DU-145 [8]): > 100 µM | TGI (DU-145 [8]): 54.7 µM | growth at 10 µM (K562): 2.59% | GI50 (SW-620): 0.551 µM | TGI (SW-620): > 100 µM | CC50 (SW-620; [11]): > 100 µM | growth at 10 µM (COLO 205): 2.21% | GI50 (NCI-H322M [9]): 4.59 µM | TGI (NCI-H322M [9]): > 100 µM | CC50 (NCI-H322M [9]; [11]): > 100 µM | GI50 (U-251): 0.661 µM | LC50 (concentration killing 50% of cells) (U-251): > 100 µM | TGI (U-251): 30.8 µM | GI50 (HCT-15): 0.654 µM | LC50 (HCT-15): > 100 µM | TGI (HCT-15): > 100 µM | GI50 [10]: 2.32 µM | TGI [10]: 22.4 µM | CC50 [10, 11]: > 100 µM | growth at 10 µM (M14): -3.82%

Reference: ChEMBL document CHEMBL2440076, “New triarylpyrazoles as broad-spectrum anticancer agents: design, synthesis, and biological evaluation” (Eur J Med Chem, 2013)
